Assay results: ChEMBL document CHEMBL3045846, “Experimental validation and docking studies of flavone derivatives on aldose reductase involved in diabetic retinopathy, neuropathy, and nephropathy” (Med Chem Res, 2011)

Assays:
[1] = target: Aldo-keto reductase family 1 member B1 (Bos taurus) (UniProt P16116); assay: Inhibition of Bos taurus (bovine) aldose reductase isolated from lens using DL-glyceraldehyde as substrate at 1.8 mM by UV-Vis spectrophotometric analysis
[2] = target: Aldo-keto reductase family 1 member B1 (Rattus norvegicus, UniProt P07943); assay: Inhibition of Rattus norvegicus (rat) aldose reductase isolated from lens using DL-glyceraldehyde as substrate after 30 min by fluorometric analysis
[3] = target: Aldo-keto reductase family 1 member B1 (Homo sapiens, UniProt P15121); assay: Inhibition of aldose reductase (unknown origin)

## O=c1cc(-c2ccc(Cl)cc2Cl)oc2c(I)cc(Cl)cc12
[1]
  inhibition: 80%

## O=c1cc(-c2ccc(O)cc2)oc2c([C@@H]3O[C@H](CO)[C@@H](O)[C@H](O)[C@H]3O)c(O)cc(O)c12 [VITEXIN]
[2]
  IC50: 2030 nM

## Cc1c(Cl)cc2c(=O)cc(-c3ccccc3)oc2c1I
[1]
  inhibition: 80%

## O=c1cc(-c2ccccc2Cl)oc2ccccc12
[1]
  inhibition: 60%

## Cc1c(Cl)cc2c(=O)cc(-c3ccc(Cl)cc3Cl)oc2c1I
[1]
  inhibition: 80%

## O=C(O)/C=C/c1ccc(O)cc1 [COUMARIC ACID]
[3]
  IC50: 140 nM

## O=c1cc(-c2ccc(O)c(O)c2)oc2cc(O)c([C@@H]3O[C@H](CO)[C@@H](O)[C@H](O)[C@H]3O)c(O)c12 [ISOORIENTIN]
[3]
  IC50: 1910 nM

## O=c1cc(-c2ccccc2)oc2c(I)cc(Cl)cc12
[1]
  inhibition: 70%

## COc1cc(-c2cc(=O)c3c(O)cc(O)cc3o2)cc(OC)c1O [TRICIN]
[3]
  IC50: 2030 nM
